In PubChem BioAssay (NCI):
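Compound exposure: 48 hours, 5 concentrations, 96-well plates. GI50 = concentration required for 50% inhibition of growth. Definition used: TGI = concentration required for complete inhibition of growth.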

Assays:
Experiment in all cases: NCI-60 cell line screen, 48 h
T-47D breast = system: T-47D breast
HCT-15 colon = system: HCT-15 colon
UACC-257 melanoma = system: UACC-257 melanoma
MDA-MB-435 = system: MDA-MB-435
PC-3 prostate = system: PC-3 prostate
SF-295 CNS = system: SF-295 CNS
KM12 colon = system: KM12 colon
A549 NSCLC = system: A549 NSCLC
DU-145 prostate = system: DU-145 prostate
NCI-H460 lung = system: NCI-H460 lung
TK-10 renal = system: TK-10 renal
NCI-H23 lung = system: NCI-H23 lung
CAKI-1 renal = system: CAKI-1 renal
MCF7 breast = system: MCF7 breast
SF-539 CNS = system: SF-539 CNS
OVCAR-5 ovarian = system: OVCAR-5 ovarian
SN12C renal = system: SN12C renal
NCI/ADR-RES ovarian = system: NCI/ADR-RES ovarian
HOP-62 NSCLC = system: HOP-62 NSCLC
RPMI-8226 leukemia = system: RPMI-8226 leukemia
BT-549 breast = system: BT-549 breast
NCI-H226 lung = system: NCI-H226 lung
COLO 205 colon = system: COLO 205 colon
SK-MEL-5 melanoma = system: SK-MEL-5 melanoma
OVCAR-4 ovarian = system: OVCAR-4 ovarian
K-562 leukemia = system: K-562 leukemia
UACC-62 melanoma = system: UACC-62 melanoma
NCI-H522 lung = system: NCI-H522 lung
SF-268 CNS = system: SF-268 CNS
LOX IMVI melanoma = system: LOX IMVI melanoma
SW-620 colon = system: SW-620 colon
ACHN renal = system: ACHN renal
EKVX NSCLC = system: EKVX NSCLC
HS 578T breast = system: HS 578T breast
786-0 renal = system: 786-0 renal
OVCAR-8 ovarian = system: OVCAR-8 ovarian
HCT-116 colon = system: HCT-116 colon
OVCAR-3 ovarian = system: OVCAR-3 ovarian
HOP-92 NSCLC = system: HOP-92 NSCLC
SK-OV-3 ovarian = system: SK-OV-3 ovarian
SK-MEL-2 melanoma = system: SK-MEL-2 melanoma
UO-31 renal = system: UO-31 renal
SR leukemia = system: SR leukemia
U251 CNS = system: U251 CNS
MDA-MB-231 breast = system: MDA-MB-231 breast
M14 melanoma = system: M14 melanoma
MOLT-4 leukemia = system: MOLT-4 leukemia
IGROV1 ovarian = system: IGROV1 ovarian
SNB-19 CNS = system: SNB-19 CNS
HL-60(TB) leukemia = system: HL-60(TB) leukemia
SNB-75 CNS = system: SNB-75 CNS
MALME-3M melanoma = system: MALME-3M melanoma
CCRF-CEM leukemia = system: CCRF-CEM leukemia
HT29 colon = system: HT29 colon
HCC-2998 colon = system: HCC-2998 colon
A498 renal = system: A498 renal
RXF 393 renal = system: RXF 393 renal

O=C(/C=C/c1ccc(Cl)cc1)c1ccc(Cl)cc1Cl
GI50 (T-47D breast): 3.25 µM
TGI (T-47D breast): 22.3 µM
GI50 (HCT-15 colon): 6.4 µM
TGI (HCT-15 colon): 15.3 µM
GI50 (UACC-257 melanoma): 10.4 µM
TGI (UACC-257 melanoma): 18.5 µM
GI50 (MDA-MB-435): 9.11 µM
TGI (MDA-MB-435): 24.3 µM
GI50 (PC-3 prostate): 11.2 µM
TGI (PC-3 prostate): 31.7 µM
GI50 (SF-295 CNS): 10.6 µM
TGI (SF-295 CNS): 21.4 µM
GI50 (KM12 colon): 5.73 µM
TGI (KM12 colon): 13.8 µM
GI50 (A549 NSCLC): 8.63 µM
TGI (A549 NSCLC): 17.5 µM
GI50 (DU-145 prostate): 7.72 µM
TGI (DU-145 prostate): 15.7 µM
GI50 (NCI-H460 lung): 10.4 µM
TGI (NCI-H460 lung): 24.8 µM
GI50 (TK-10 renal): 7.42 µM
TGI (TK-10 renal): 14 µM
GI50 (NCI-H23 lung): 4.55 µM
TGI (NCI-H23 lung): 12.4 µM
GI50 (CAKI-1 renal): 8.22 µM
TGI (CAKI-1 renal): 15.7 µM
GI50 (MCF7 breast): 6.28 µM
TGI (MCF7 breast): 23 µM
GI50 (SF-539 CNS): 9.68 µM
TGI (SF-539 CNS): 17.9 µM
GI50 (OVCAR-5 ovarian): 9.15 µM
TGI (OVCAR-5 ovarian): 18 µM
GI50 (SN12C renal): 9.96 µM
TGI (SN12C renal): 20.9 µM
GI50 (NCI/ADR-RES ovarian): 0.331 µM
TGI (NCI/ADR-RES ovarian): 15.5 µM
GI50 (HOP-62 NSCLC): 10.9 µM
TGI (HOP-62 NSCLC): 25.1 µM
GI50 (RPMI-8226 leukemia): 1.42 µM
TGI (RPMI-8226 leukemia): 11 µM
GI50 (BT-549 breast): 7.44 µM
TGI (BT-549 breast): 14.8 µM
GI50 (NCI-H226 lung): 9.41 µM
TGI (NCI-H226 lung): 18.1 µM
GI50 (COLO 205 colon): 12.1 µM
TGI (COLO 205 colon): 30.8 µM
GI50 (SK-MEL-5 melanoma): 4.89 µM
TGI (SK-MEL-5 melanoma): 13.1 µM
GI50 (OVCAR-4 ovarian): 6.14 µM
TGI (OVCAR-4 ovarian): 14 µM
GI50 (K-562 leukemia): 1.68 µM
TGI (K-562 leukemia): 14.2 µM
GI50 (UACC-62 melanoma): 1.28 µM
TGI (UACC-62 melanoma): 12.4 µM
GI50 (NCI-H522 lung): 8.15 µM
TGI (NCI-H522 lung): 16.8 µM
GI50 (SF-268 CNS): 10.1 µM
TGI (SF-268 CNS): 21.8 µM
GI50 (LOX IMVI melanoma): 1.15 µM
TGI (LOX IMVI melanoma): 5.62 µM
GI50 (SW-620 colon): 1.88 µM
TGI (SW-620 colon): 6.31 µM
GI50 (ACHN renal): 0.213 µM
TGI (ACHN renal): 10.9 µM
GI50 (EKVX NSCLC): 9.33 µM
TGI (EKVX NSCLC): 19.7 µM
GI50 (HS 578T breast): 11.7 µM
TGI (HS 578T breast): 25.9 µM
GI50 (786-0 renal): 7.05 µM
TGI (786-0 renal): 15.8 µM
GI50 (OVCAR-8 ovarian): 8.65 µM
TGI (OVCAR-8 ovarian): 21.5 µM
GI50 (HCT-116 colon): 4.74 µM
TGI (HCT-116 colon): 33.5 µM
GI50 (OVCAR-3 ovarian): 9.19 µM
TGI (OVCAR-3 ovarian): 18.4 µM
GI50 (HOP-92 NSCLC): 9.39 µM
TGI (HOP-92 NSCLC): 19.4 µM
GI50 (SK-OV-3 ovarian): 6.84 µM
TGI (SK-OV-3 ovarian): 14.5 µM
GI50 (SK-MEL-2 melanoma): 9.55 µM
TGI (SK-MEL-2 melanoma): 18.9 µM
GI50 (UO-31 renal): 7.62 µM
TGI (UO-31 renal): 14.4 µM
GI50 (SR leukemia): 2.31 µM
TGI (SR leukemia): 50 µM
GI50 (U251 CNS): 7.23 µM
TGI (U251 CNS): 14.1 µM
GI50 (MDA-MB-231 breast): 10.9 µM
TGI (MDA-MB-231 breast): 22.1 µM
GI50 (M14 melanoma): 10.9 µM
TGI (M14 melanoma): 24.2 µM
GI50 (MOLT-4 leukemia): 0.915 µM
TGI (MOLT-4 leukemia): 2.12 µM
GI50 (IGROV1 ovarian): 0.987 µM
TGI (IGROV1 ovarian): 14.6 µM
GI50 (SNB-19 CNS): 13.3 µM
TGI (SNB-19 CNS): 29.5 µM
GI50 (HL-60(TB) leukemia): 7.25 µM
TGI (HL-60(TB) leukemia): 27.9 µM

COc1cccc(/C=C/C(=O)c2cc3c(N)c(C(=O)Nc4ccccc4C)sc3nc2C)c1
GI50 (T-47D breast): 1.15 µM
TGI (T-47D breast): 3.63 µM
GI50 (HCT-15 colon): 0.854 µM
TGI (HCT-15 colon): 1.87 µM
GI50 (UACC-257 melanoma): 1.21 µM
TGI (UACC-257 melanoma): 3.75 µM
GI50 (MDA-MB-435): 1.07 µM
TGI (MDA-MB-435): 2.77 µM
GI50 (PC-3 prostate): 1.69 µM
TGI (PC-3 prostate): 8.3 µM
GI50 (SF-295 CNS): 2.26 µM
TGI (SF-295 CNS): 15.9 µM
GI50 (KM12 colon): 1.27 µM
TGI (KM12 colon): 3.62 µM
GI50 (A549 NSCLC): 1.53 µM
TGI (A549 NSCLC): 6.29 µM
GI50 (DU-145 prostate): 1.32 µM
TGI (DU-145 prostate): 4.08 µM
GI50 (NCI-H460 lung): 1.1 µM
TGI (NCI-H460 lung): 2.53 µM
GI50 (TK-10 renal): 1.55 µM
TGI (TK-10 renal): 6.21 µM
GI50 (NCI-H23 lung): 1.76 µM
TGI (NCI-H23 lung): 8.93 µM
GI50 (CAKI-1 renal): 1.66 µM
TGI (CAKI-1 renal): 5.75 µM
GI50 (MCF7 breast): 1.29 µM
TGI (MCF7 breast): 6.1 µM
GI50 (SNB-75 CNS): 1.05 µM
TGI (SNB-75 CNS): 3.15 µM
GI50 (SF-539 CNS): 1.13 µM
TGI (SF-539 CNS): 2.91 µM
GI50 (OVCAR-5 ovarian): 1.21 µM
TGI (OVCAR-5 ovarian): 3.76 µM
GI50 (SN12C renal): 0.953 µM
TGI (SN12C renal): 2.13 µM
GI50 (NCI/ADR-RES ovarian): 1.51 µM
TGI (NCI/ADR-RES ovarian): > 50 µM
GI50 (HOP-62 NSCLC): 1.12 µM
TGI (HOP-62 NSCLC): 2.57 µM
GI50 (MALME-3M melanoma): 2.29 µM
TGI (MALME-3M melanoma): 12.6 µM
GI50 (RPMI-8226 leukemia): 1.09 µM
TGI (RPMI-8226 leukemia): 2.92 µM
GI50 (BT-549 breast): 1.5 µM
TGI (BT-549 breast): 5.83 µM
GI50 (NCI-H226 lung): 1.07 µM
TGI (NCI-H226 lung): 2.92 µM
GI50 (COLO 205 colon): 2.02 µM
TGI (COLO 205 colon): 7.61 µM
GI50 (SK-MEL-5 melanoma): 1.44 µM
TGI (SK-MEL-5 melanoma): 4.56 µM
GI50 (OVCAR-4 ovarian): 2.38 µM
TGI (OVCAR-4 ovarian): 11.2 µM
GI50 (K-562 leukemia): 1.42 µM
TGI (K-562 leukemia): > 50 µM
GI50 (CCRF-CEM leukemia): 1.33 µM
TGI (CCRF-CEM leukemia): > 50 µM
GI50 (HT29 colon): 1.11 µM
TGI (HT29 colon): 2.58 µM
GI50 (UACC-62 melanoma): 0.905 µM
TGI (UACC-62 melanoma): 2 µM
GI50 (NCI-H522 lung): 1.07 µM
TGI (NCI-H522 lung): 3.38 µM
GI50 (SF-268 CNS): 1.78 µM
TGI (SF-268 CNS): 7.66 µM
GI50 (LOX IMVI melanoma): 0.875 µM
TGI (LOX IMVI melanoma): 1.59 µM
GI50 (SW-620 colon): 1.01 µM
TGI (SW-620 colon): 2.32 µM
GI50 (ACHN renal): 0.894 µM
TGI (ACHN renal): 1.86 µM
GI50 (EKVX NSCLC): 1.84 µM
TGI (EKVX NSCLC): 10.8 µM
GI50 (HS 578T breast): 1.63 µM
TGI (HS 578T breast): > 50 µM
GI50 (786-0 renal): 0.912 µM
TGI (786-0 renal): 1.93 µM
GI50 (OVCAR-8 ovarian): 1.26 µM
TGI (OVCAR-8 ovarian): > 50 µM
GI50 (HCT-116 colon): 0.822 µM
TGI (HCT-116 colon): 1.5 µM
GI50 (OVCAR-3 ovarian): 1.13 µM
TGI (OVCAR-3 ovarian): 2.44 µM
GI50 (HCC-2998 colon): 0.955 µM
TGI (HCC-2998 colon): 1.87 µM
GI50 (HOP-92 NSCLC): 0.823 µM
TGI (HOP-92 NSCLC): 2.72 µM
GI50 (SK-OV-3 ovarian): 5.03 µM
TGI (SK-OV-3 ovarian): 38.8 µM
GI50 (SK-MEL-2 melanoma): 1.7 µM
TGI (SK-MEL-2 melanoma): 8.18 µM
GI50 (UO-31 renal): 0.863 µM
TGI (UO-31 renal): 1.72 µM
GI50 (SR leukemia): 1.09 µM
TGI (SR leukemia): 4.2 µM
GI50 (U251 CNS): 0.892 µM
TGI (U251 CNS): 1.81 µM
GI50 (MDA-MB-231 breast): 1.46 µM
TGI (MDA-MB-231 breast): 4.08 µM
GI50 (M14 melanoma): 1.59 µM
TGI (M14 melanoma): 6.42 µM
GI50 (MOLT-4 leukemia): 1.49 µM
TGI (MOLT-4 leukemia): 27.8 µM
GI50 (A498 renal): 0.989 µM
TGI (A498 renal): 4.4 µM
GI50 (RXF 393 renal): 0.768 µM
TGI (RXF 393 renal): 1.53 µM
GI50 (IGROV1 ovarian): 1.03 µM
TGI (IGROV1 ovarian): 2.44 µM
GI50 (SNB-19 CNS): 1.07 µM
TGI (SNB-19 CNS): 2.68 µM
GI50 (HL-60(TB) leukemia): 1.1 µM
TGI (HL-60(TB) leukemia): 2.63 µM
